Results from PubChem BioAssay (NCI).
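Step 1: Grow cells in 96-well plates. Step 2: Expose to compound for 48 hours at 5 concentrations. Step 3: Interpolate endpoints linearly; if unreached, use highest concentration. The concentration for 50% growth inhibition is given as GI50. TGI is the concentration that stops growth completely.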

Key:
Test in all cases: growth of human tumour cells (NCI), 48 h
HOP-92 NSCLC = tested on: HOP-92 NSCLC
CAKI-1 renal = tested on: CAKI-1 renal
786-0 renal = tested on: 786-0 renal
HCC-2998 colon = tested on: HCC-2998 colon
HCT-15 colon = tested on: HCT-15 colon
SK-MEL-28 melanoma = tested on: SK-MEL-28 melanoma
SF-295 CNS = tested on: SF-295 CNS
SN12C renal = tested on: SN12C renal
SF-539 CNS = tested on: SF-539 CNS
OVCAR-4 ovarian = tested on: OVCAR-4 ovarian
K-562 leukemia = tested on: K-562 leukemia
U251 CNS = tested on: U251 CNS
NCI-H226 lung = tested on: NCI-H226 lung
M14 melanoma = tested on: M14 melanoma
UO-31 renal = tested on: UO-31 renal
PC-3 prostate = tested on: PC-3 prostate
MDA-N = tested on: MDA-N
MDA-MB-231 breast = tested on: MDA-MB-231 breast

Compound | TGI (HOP-92 NSCLC) [µM] | TGI (CAKI-1 renal) [µM] | TGI (786-0 renal) [µM] | TGI (HCC-2998 colon) [µM] | TGI (HCT-15 colon) [µM] | TGI (SK-MEL-28 melanoma) [µM] | TGI (SF-295 CNS) [µM] | TGI (SN12C renal) [µM] | TGI (SF-539 CNS) [µM] | TGI (OVCAR-4 ovarian) [µM] | TGI (K-562 leukemia) [µM] | TGI (U251 CNS) [µM] | TGI (NCI-H226 lung) [µM] | TGI (M14 melanoma) [µM] | TGI (UO-31 renal) [µM] | GI50 (HCT-15 colon) [µM] | TGI (PC-3 prostate) [µM] | TGI (MDA-N) [µM] | TGI (MDA-MB-231 breast) [µM] | GI50 (HCC-2998 colon) [µM]
CCOC(=O)c1c(C(F)(F)F)oc2c1ccc1nc3nonc3nc12 | 27.3 | 27.3 | 25.3 | 47.6 | 32.6 | 27.3 | > 63.3 | 31.7 | 32 | 24.9 | 13.9 | 29.1 | 36.1 | 21 | 33.4 | – | – | – | – | –
CCCCCn1cnc2c1S(=O)(=O)N(C)C(NC(=O)c1ccccc1)=N2 | > 100 | > 100 | > 100 | > 100 | > 100 | > 100 | > 100 | > 100 | > 100 | > 100 | > 100 | > 100 | > 100 | – | > 100 | – | – | – | – | –
O=C1C2Nc3ccccc3SC2C(=O)N1c1cccc([N+](=O)[O-])c1 (stereo not drawn) | > 100 | > 100 | > 100 | > 100 | > 100 | > 100 | > 100 | > 100 | > 100 | > 100 | > 100 | > 100 | > 100 | > 100 | > 100 | – | – | – | – | –
Cn1c2c(cc(-c3ccccc3)c1=O)COc1ccccc1-2 | > 100 | > 100 | > 100 | > 100 | > 100 | 84.6 | 74.9 | > 100 | > 100 | > 100 | 53.2 | > 100 | > 100 | 94.4 | 63.3 | – | – | – | – | –
COc1cc(C2C(Cl)C(=O)N2NC(=O)Cc2ccccc2)ccc1O (stereo not drawn) | – | > 100 | > 100 | > 100 | > 100 | > 100 | > 100 | > 100 | – | > 100 | > 100 | > 100 | > 100 | > 100 | > 100 | – | – | – | – | –
C[N+](C)(Cc1ccc(NC(=O)CCCC(=O)ON2C(=O)CCC2=O)cc1)c1ccccc1 | < 0.01 | > 100 | > 100 | – | > 100 | < 0.01 | > 100 | > 100 | < 0.01 | 2.29 | > 100 | > 100 | 0.0133 | > 100 | – | > 100 | – | – | – | –
O=C(NNC(=O)c1ccccc1Cl)c1ccccc1O | – | > 100 | > 100 | – | > 100 | > 100 | > 100 | > 100 | > 100 | > 100 | > 100 | > 100 | 77.1 | > 100 | > 100 | – | > 100 | > 100 | > 100 | –
O=C(O)Cc1ccc2c(c1O)C(=O)c1c(ccc(CC(=O)O)c1O)C2=O | > 100 | > 100 | > 100 | > 100 | > 100 | > 100 | > 100 | > 100 | > 100 | > 100 | > 100 | > 100 | > 100 | > 100 | – | – | – | – | – | –
COC(=O)/C(=N\O)C(C(=O)C=C(C)C)C(=O)C(=O)Nc1ccccc1C (stereo not drawn) | > 100 | > 100 | > 100 | > 100 | > 100 | > 100 | > 100 | > 100 | > 100 | > 100 | > 100 | > 100 | > 100 | > 100 | > 100 | – | – | – | – | –
O=C(Nc1cc(Cl)c(Cl)cc1Cl)C(=O)C(C(=O)c1ccc2ccccc2c1)C1OC(=O)c2ccccc21 (stereo not drawn) | 7.96 | – | 20.9 | – | 45.2 | 22.1 | 21 | 42.5 | 13 | – | – | 17 | 7.13 | 50.7 | 33.5 | – | – | – | – | –
COC1=CC(=O)c2ccccc2C1(C)C1=NC(C)(C)CO1 (stereo not drawn) | > 100 | > 100 | > 100 | – | > 100 | > 100 | > 100 | > 100 | > 100 | > 100 | > 100 | > 100 | > 100 | > 100 | > 100 | – | – | – | – | –
C/C(CN1C(=O)c2ccccc2C1=O)=N\NS(=O)(=O)c1ccc(F)cc1 | – | > 100 | > 100 | > 100 | > 100 | > 100 | > 100 | > 100 | > 100 | > 100 | > 100 | > 100 | > 100 | > 100 | > 100 | – | – | – | – | –
COC(=O)c1cc(C)n(NC(=O)OC(C)(C)C)c1C | – | > 100 | > 100 | > 100 | > 100 | > 100 | > 100 | > 100 | > 100 | – | > 100 | > 100 | > 100 | > 100 | > 100 | – | – | – | – | –
CC(C)(C)C(=O)[CH-]C(=O)C(F)(F)C(F)(F)C(F)(F)F.CC(C)(C)C(=O)[CH-]C(=O)C(F)(F)C(F)(F)C(F)(F)F.[O-]CC1OC(O)C(O)C(O)C1O.[O-]CC1OC(O)C(O)C(O)C1O.[Ti+4] | 96.9 | > 100 | > 100 | > 100 | > 100 | > 100 | > 100 | > 100 | > 100 | > 100 | > 100 | > 100 | > 100 | > 100 | > 100 | – | – | – | – | > 100
COc1ccc(/C(Cl)=C/c2ccc(Cl)c(Cl)c2)cc1 | 78.7 | – | > 100 | 43.2 | 97.3 | > 100 | 74.9 | > 100 | > 100 | > 100 | > 100 | 50.4 | 53.2 | > 100 | > 100 | – | – | – | – | –
